# Read-outs that look alike come from different tables or passages of the source.
# How the values were obtained:
# [1] = test system: MCF-7; assay: Sensitivity of cell lines to Cisplatin and Ti compounds (MCF-7); type: cell-based; details: for relative sensitivity of cell lines: MCF-7, relative to LoVo
# [2] = test system: LoVo; assay: Sensitivity of cell lines to Cisplatin and Ti compounds (LoVo); type: cell-based; details: for relative sensitivity of cell lines: LoVo (reference line = 1)
# [3] = test system: LS 174T; assay: Sensitivity of cell lines to Cisplatin and Ti compounds (LS 174T); type: cell-based; details: for relative sensitivity of cell lines: LS-174T, relative to LoVo
# [4] = test system: A2780; assay: Sensitivity of cell lines to Cisplatin and Ti compounds (A2780); type: cell-based; details: for relative sensitivity of cell lines: A2780, relative to LoVo; for DIFFERENTIAL: IC50 of 2 relative to Cisplatin
# [5] = test system: A2780-cis; assay: Anti-proliferative effect on cisplatin-resistant A2780-cis; type: cell-based; details: for relative sensitivity of A2780 and A2780cis cell lines: relative to A2780 144 hr; for relative sensitivity of cell lines: relative to LoVo; for DIFFERENTIAL: IC50 of 2 relative to Cisplatin
# Excerpt: In order to determine whether these types of complexes overcome platinum resistance in vitro, the anti-proliferative effects of 2 on cisplatin-resistant […] were examined (see Table 3).
# [6] = test system: LX1; details: LX1, histologically unclassified lung tumour; cited from earlier work
# [7] = test system: certain cancer cell lines; details: compared to Cp2TiCl2
# [8] = test system: xenografted tumours of the colon, head, breast, rectum, lung and stomach; details: in vivo; cited from earlier work
# [9] = A2780 (24 hour), read-out: IC50
# [10] = A2780, exposure time 24 hr, relative to A2780 144 hr
# [11] = A2780, exposure time 144 hr (reference = 1)
# [12] = A2780-cis (24 hour), read-out: IC50
Compound,relative sensitivity of cell lines [1],IC50 ([2]; LoVo),relative sensitivity of cell lines [2],IC50 ([3]; LS 174T),relative sensitivity of cell lines [3],"IC50 [4, 9]","relative sensitivity of A2780 and A2780cis cell lines [4, 10]","relative sensitivity of A2780 and A2780cis cell lines [4, 11]",relative sensitivity of cell lines [4],"IC50 ([4]; A2780, read-out: IC50)","IC50 [5, 12]","IC50 ([5]; A2780-cis, read-out: IC50)","relative sensitivity of A2780 and A2780cis cell lines ([5]; A2780cis, exposure time 24 hr)","relative sensitivity of A2780 and A2780cis cell lines ([5]; A2780cis, exposure time 144 hr)",relative sensitivity of cell lines ([5]; A2780cis),anti-tumour activity against LX1 [6],also measured
"N.N.[Cl][Pt][Cl] [Cisplatin, cisplatin, reference compound]",24.3,0.37 µM,1,0.5 µM,1.35,1 µM,1.22,1,2.2,0.82 µM,5.4 µM,2.1 µM,6.59,2.56,5.7,–,"resistance relative to 2 (times more resistant) ([5]; cisplatin-resistant A2780, after 144 hours): 3 times"
"[Cl-].[Cl-].[V+4].c1cc[cH-]c1.c1cc[cH-]c1 [Cp2VCl2, vanadocene(bis-cyclopentadienyl vanadium)dichloride]",–,–,–,–,–,–,–,–,–,–,–,–,–,–,–,significant activity,–
[Cp(CH2)2NH(CH2)5]2TiCl2.2HCl [compound 2],1,62 µM,1,36 µM,0.58,168 µM,5.42,1,0.5,31 µM,154 µM,28 µM,4.97,0.90,0.45,–,"IC50 ([1]; MCF-7): 62 µM; DIFFERENTIAL ([1]; MCF-7, IC50 of 2 relative to Cisplatin): 6.9 µM; potency relative to Cp2TiCl2 (times more potent) [7]: around 10 times; DIFFERENTIAL ([2]; LoVo, IC50 of 2 relative to Cisplatin): 167.6 µM; DIFFERENTIAL ([3]; LS 174T, IC50 of 2 relative to Cisplatin): 72 µM; DIFFERENTIAL ([4]; A2780 (24 hour)): 168 µM; IC50 ([4]; A2780, 7 days, read-out: IC50 (7 days)): 99.1 µM; DIFFERENTIAL ([4]; A2780): 37.8 µM; DIFFERENTIAL ([5]; A2780-cis (24 hour)): 28.5 µM; DIFFERENTIAL ([5]; A2780-cis): 13.3 µM; IC50 ([5]; A2780cis, 7 days, read-out: IC50 (7 days)): 4.3 µM"
"C1=C[CH]([Ti+2][CH]2C=CC=C2)C=C1.[Cl-].[Cl-].[Ti+2].c1cc[cH-]c1.c1cc[cH-]c1 [Cp2TiCl2, titanocene (bis-cyclopentadienyl titanium)dichloride]",–,–,–,–,–,–,–,–,–,–,–,–,–,–,–,no significant anti-tumour activity,sensitivity of xenografted tumours [8]: significantly sensitive
